Measured values published in US9445594B2, “Molecules having certain pesticidal utilities, intermediates, compositions, and processes, related thereto” (priority 2014, dated 2016).

Columns and labels:
Assay type in all cases: in vivo
[1] = test system: Beet Armyworm (Spodoptera exigua, LAPHEG) ("BAW"); test: Bioassays on BAW, 128-well diet tray assay; conditions: 168 h, second instar larvae, 50 μg/cm^2 on artificial diet, 25° C., five to seven days, average of eight wells, read-out: BAW % Control (or Mortality) rating
Method in brief: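 One to five second-instar larvae were placed per well on artificial diet surface-treated with 50 μg/cm^2 compound from 90:10 acetone-water, dried before infestation. Trays were held at 25 °C, 14:10 light-dark, for five to seven days. Percent mortality was averaged over eight wells.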

[2] = test system: Corn Earworm (Helicoverpa zea, HELIZE) ("CEW"); test: Bioassays on CEW, 128-well diet tray assay; conditions: 168 h, second instar larvae, 50 μg/cm^2 on artificial diet, 25° C., five to seven days, average of eight wells, read-out: CEW % Control (or Mortality) rating
Protocol: Certain molecules disclosed in this document were tested against BAW, CEW, and CL using procedures described in the following examples. In the reporting of the results, the “BAW, CEW, & CL Rating Table” was used (See Table Section).
Bioassays on CEW were conducted using a 128-well diet tray assay. one to five second instar CEW larvae were placed in each well (3 mL) of the diet tray that had been previously filled with 1 mL of artificial diet to which 50 μg/cm^2 of the test compound (dissolved in 50 μL of 90:10 acetone-water mixture) had been applied (to each of eight wells) and then allowed to dry. Trays were covered with a clear self-adhesive cover, and held at 25° C., 14:10 light-dark for five to seven days. Percent mortality was recorded for the larvae in each well; activity in the eight wells was then averaged. The results are indicated in the table entitled “Table ABC: Biological Results” (See Table Section). Bioassays on CL

[3] = test system: Green Peach Aphid (Myzus persicae, MYZUPE) ("GPA"); test: Bioassays on GPA, foliar spray of infested cabbage seedlings; conditions: 72 h, 200 ppm spray on cabbage seedlings, graded after three days, Abbott corrected % control, read-out: GPA % Control (or Mortality) rating
Protocol: Certain molecules disclosed in this document were tested against GPA using procedures described in the following example. In the reporting of the results, the “GPA Rating Table” was used (See Table Section).
Cabbage seedlings grown in 3-inch pots, with 2-3 small (3-5 cm) true leaves, were used as test substrate. The seedlings were infested with 20-50 GPA (wingless adult and nymph stages) one day prior to chemical application. Four pots with individual seedlings were used for each treatment. Test compounds (2 mg) were dissolved in 2 mL of acetone/methanol (1:1) solvent, forming stock solutions of 1000 ppm test compound. The stock solutions were diluted 5× with 0.025% Tween 20 in water to obtain the solution at 200 ppm test compound. A hand-held aspirator-type sprayer was used for spraying a solution to both sides of […] leaves until runoff. Reference plants (solvent check) were sprayed with the diluent only containing 20% by volume of acetone/methanol (1:1) solvent. Treated plants were held in a holding room for three days at approximately 25° C. and ambient relative humidity (RH) prior to grading. Evaluation was conducted by counting the number of live aphids per plant under a microscope. Percent Control was measured by using Abbott's correction formula (W. S. Abbott, “A Method of Computing the Effectiveness of an Insecticide” J. Econ. Entomol. 18 (1925), pp. 265-267) as follows. Corrected % Control=100*(X−Y)/X • where • X=No. of live aphids on solvent check plants and • Y=No. of live aphids on treated plants

[4] = test system: Yellow Fever Mosquito (Aedes aegypti, AEDSAE) ("YFM"); test: Bioassays on YFM, 96-well plate larval assay; conditions: about 1 day-old larvae, from 4000 ppm DMSO master plate diluted, room temperature, scored after 3 days
Method in brief: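 Compounds from 4000 ppm DMSO master plates, diluted in 90:10 water:acetone, dispensed into 96-well plates, six replicates. About 1-day-old larvae added in liver-powder water. Wells covered, held 3 days at room temperature, then scored for mortality.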

[5] = test system: Cabbage Looper (Trichoplusia ni, TRIPNI) ("CL"); test: Bioassays on CL, 128-well diet tray assay; conditions: 168 h, second instar larvae, 50 μg/cm^2 on artificial diet, 25° C., five to seven days, average of eight wells, read-out: CL % Control (or Mortality) rating
Method in brief: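 Second-instar larvae (one to five per well) on artificial diet surface-treated with 50 μg/cm^2 compound in 90:10 acetone-water, eight wells per treatment. Held at 25° C., 14:10 light-dark for five to seven days. Percent mortality scored per well and averaged over the eight wells.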

CCOc1ccc(NC(=S)Nc2ccc(-c3ncn(-c4ccc(OC(F)(F)F)cc4)n3)cc2)cn1 [F14, 1-(6-Ethoxypyridin-3-yl)-3-(4-(1-(4-(trifluoromethoxy)phenyl)-1H-1,2,4-triazol-3-yl)phenyl)thiourea]
mortality at 50 µg/cm2 [1]: 0%
mortality at 50 µg/cm2 [2]: 0%

CC(C)c1ccccc1NC(=S)Nc1ccc(-c2ncn(-c3ccc(OC(F)(F)F)cc3)n2)cc1 [F3, 1-(2-isopropylphenyl)-3-(4-(1-(4-(trifluoromethoxy)phenyl)-1H-1,2,4-triazol-3-yl)phenyl)thiourea]
mortality at 50 µg/cm2 [1]: 50 to 100%
mortality at 50 µg/cm2 [2]: 50 to 100%

FC(F)(F)Oc1ccc(-n2cnc(-c3ccc(NC(=S)Nc4cnccc4C(F)(F)F)cc3)n2)cc1 [F12, 1-(4-(1-(4-(trifluoromethoxy)phenyl)-1H-1,2,4-triazol-3-yl)phenyl)-3-(4-(trifluoromethyl)pyridin-3-yl)thiourea]
mortality at 50 µg/cm2 [1]: 0%
mortality at 50 µg/cm2 [2]: 0%

N#Cc1ccc(NC(=S)Nc2ccc(-c3ncn(-c4ccc(OC(F)(F)F)cc4)n3)cc2)cc1 [F7, 1-(4-Cyanophenyl)-3-(4-(1-(4-(trifluoromethoxy)phenyl)-1H-1,2,4-triazol-3-yl)phenyl)thiourea]
mortality at 50 µg/cm2 [1]: 0%
mortality at 50 µg/cm2 [2]: 0%

CSc1ccc(NC(=S)Nc2ccc(-c3ncn(-c4ccc(OC(F)(F)F)cc4)n3)cc2)cn1 [F27, 1-(6-(Methylthio)pyridin-3-yl)-3-(4-(1-(4-(trifluoromethoxy)phenyl)-1H-1,2,4-triazol-3-yl)phenyl)thiourea]
mortality at 50 µg/cm2 [1]: 0%
mortality at 50 µg/cm2 [2]: 0%

CCc1ccccc1-c1cccnc1NC(=S)Nc1ccc(-c2ncn(-c3ccc(OC(F)(F)F)cc3)n2)cc1 [F20, 1-(3-(2-Ethylphenyl)pyridin-2-yl)-3-(4-(1-(4-(trifluoromethoxy)phenyl)-1H-1,2,4-triazol-3-yl)phenyl)thiourea]
mortality at 50 µg/cm2 [1]: 0 to 50%
mortality at 200 ppm [3]: 0 to 80%
YFM % Control (or Mortality) rating [4]: D (No activity noticed in this bioassay)
mortality at 50 µg/cm2 [5]: 50 to 100%

C#Cc1ccccc1NC(=O)Nc1ccc(-c2ncn(-c3ccc(OC(F)(F)F)cc3)n2)cc1 [F5, 1-(2-Ethynylphenyl)-3-(4-(1-(4-(trifluoromethoxy)phenyl)-1H-1,2,4-triazol-3-yl)phenyl)urea]
mortality at 50 µg/cm2 [1]: 50 to 100%
mortality at 200 ppm [3]: 0%
YFM % Control (or Mortality) rating [4]: D (No activity noticed in this bioassay)
mortality at 50 µg/cm2 [5]: 50 to 100%

CCc1ccccc1-c1ccccc1NC(=O)Nc1ccc(-c2ncn(-c3ccc(OC(F)(F)F)cc3)n2)cc1 [F35, 1-(2′-Ethyl-[1,1′-biphenyl]-2-yl)-3-(4-(1-(4-(trifluoromethoxy)phenyl)-1H-1,2,4-triazol-3-yl)phenyl)urea]
mortality at 50 µg/cm2 [1]: 50 to 100%
mortality at 200 ppm [3]: 0%
YFM % Control (or Mortality) rating [4]: A (80-100)
mortality at 50 µg/cm2 [5]: 50 to 100%

O=C(NCCCc1ccc(-c2ncn(-c3ccc(OC(F)(F)F)cc3)n2)cc1)Nc1ccccc1-c1ccccc1 [P9, 1-([1,1′-Biphenyl]-2-yl)-3-(3-(4-(1-(4-(trifluoromethoxy)phenyl)-1H-1,2,4-triazol-3-yl)phenyl)propyl)urea]
mortality at 50 µg/cm2 [1]: 0%
mortality at 200 ppm [3]: 0%
YFM % Control (or Mortality) rating [4]: B (More than 0 - Less than 80)
mortality at 50 µg/cm2 [5]: 50 to 100%

FC(F)(F)Oc1ccc(-n2cnc(-c3ccc(NC(=S)Nc4ccc5ccccc5c4)cc3)n2)cc1 [F25, 1-(Naphthalen-2-yl)-3-(4-(1-(4-(trifluoromethoxy)phenyl)-1H-1,2,4-triazol-3-yl)phenyl)thiourea]
mortality at 50 µg/cm2 [1]: 50 to 100%
mortality at 50 µg/cm2 [2]: 50 to 100%

Cc1ccccc1-c1cccc(NC(=O)NCCCc2ccc(-c3ncn(-c4ccc(OC(F)(F)F)cc4)n3)cc2)c1 [FA2, 1-(2′-Methyl-[1,1′-biphenyl]-3-yl)-3-(3-(4-(1-(4-(trifluoromethoxy)phenyl)-1H-1,2,4-triazol-3-yl)phenyl)propyl)urea]
mortality at 50 µg/cm2 [1]: 0%
mortality at 200 ppm [3]: 0%
YFM % Control (or Mortality) rating [4]: D (No activity noticed in this bioassay)
mortality at 50 µg/cm2 [5]: 0%

COc1ccc(NC(=S)Nc2ccc(-c3ncn(-c4ccc(OC(F)(F)F)cc4)n3)cc2)c(C)c1 [F43, 1-(4-Methoxy-2-methylphenyl)-3-(4-(1-(4-(trifluoromethoxy)phenyl)-1H-1,2,4-triazol-3-yl)phenyl)thiourea]
mortality at 50 µg/cm2 [1]: 50 to 100%
mortality at 50 µg/cm2 [2]: 50 to 100%

COc1ccc(NC(=S)Nc2ccc(-c3ncn(-c4ccc(OC(F)(F)F)cc4)n3)cc2)cc1 [F71, 1-(4-Methoxyphenyl)-3-(4-(1-(4-(trifluoromethoxy)phenyl)-1H-1,2,4-triazol-3-yl)phenyl)thiourea]
mortality at 50 µg/cm2 [1]: 50 to 100%
mortality at 50 µg/cm2 [2]: 50 to 100%

CC(C)c1ccccc1-c1ccccc1NC(=S)Nc1ccc(-c2ncn(-c3ccc(OC(F)(F)F)cc3)n2)cc1 [F28, 1-(2′-isopropyl-[1,1′-biphenyl]-2-yl)-3-(4-(1-(4-(trifluoromethoxy)phenyl)-1H-1,2,4-triazol-3-yl)phenyl)thiourea]
mortality at 50 µg/cm2 [1]: 0 to 50%
mortality at 200 ppm [3]: 0 to 80%
YFM % Control (or Mortality) rating [4]: D (No activity noticed in this bioassay)
mortality at 50 µg/cm2 [5]: 50 to 100%

Cc1ccc(C(C)C)c(NC(=O)NCCCc2ccc(-c3ncn(-c4ccc(OC(F)(F)F)cc4)n3)cc2)c1 [P6, 1-(2-Isopropyl-5-methylphenyl)-3-(3-(4-(1-(4-(trifluoromethoxy)phenyl)-1H-1,2,4-triazol-3-yl)phenyl)propyl)urea]
mortality at 50 µg/cm2 [1]: 50 to 100%
mortality at 200 ppm [3]: 0%
YFM % Control (or Mortality) rating [4]: A (80-100)
mortality at 50 µg/cm2 [5]: 50 to 100%

CC(C)CC(C)c1ccccc1NC(=O)Nc1ccc(-c2ncn(-c3ccc(OC(F)(F)F)cc3)n2)cc1 (centres unmarked) [F18, 1-(2-(4-methylpentan-2-yl)phenyl)-3-(4-(1-(4-(trifluoromethoxy)phenyl)-1H-1,2,4-triazol-3-yl)phenyl)urea]
mortality at 50 µg/cm2 [1]: 50 to 100%
mortality at 200 ppm [3]: 0%
YFM % Control (or Mortality) rating [4]: D (No activity noticed in this bioassay)
mortality at 50 µg/cm2 [5]: 50 to 100%

CCc1cccc(C)c1NC(=O)NCCCc1ccc(-c2ncn(-c3ccc(OC(F)(F)F)cc3)n2)cc1 [P5, 1-(2-Ethyl-6-methylphenyl)-3-(3-(4-(1-(4-(trifluoromethoxy)phenyl)-1H-1,2,4-triazol-3-yl)phenyl)propyl)urea]
mortality at 50 µg/cm2 [1]: 0%
mortality at 200 ppm [3]: 0%
YFM % Control (or Mortality) rating [4]: D (No activity noticed in this bioassay)
mortality at 50 µg/cm2 [5]: 0%

CC(C)c1cccc(NC(=O)NCCCc2ccc(-c3ncn(-c4ccc(OC(F)(F)F)cc4)n3)cc2)c1 [P2, 1-(3-Isopropylphenyl)-3-(3-(4-(1-(4-(trifluoromethoxy)phenyl)-1H-1,2,4-triazol-3-yl)phenyl)propyl)urea]
mortality at 50 µg/cm2 [1]: 0 to 50%
mortality at 200 ppm [3]: 0%
YFM % Control (or Mortality) rating [4]: D (No activity noticed in this bioassay)
mortality at 50 µg/cm2 [5]: 0%

O=C(Nc1ccc(F)cc1)Nc1ccc(-c2ncn(-c3ccc(OC(F)(F)F)cc3)n2)cc1 [F17, 1-(4-fluorophenyl)-3-(4-(1-(4-(trifluoromethoxy)phenyl)-1H-1,2,4-triazol-3-yl)phenyl)urea]
mortality at 50 µg/cm2 [1]: 0%
YFM % Control (or Mortality) rating [4]: D (No activity noticed in this bioassay)
mortality at 50 µg/cm2 [2]: 0%
